Experimental data from patent publication US9695150B2, “Crystalline form of a substituted quinoline compound and pharmaceutical compositions thereof” (Sunshine Lake Pharma Co., Ltd., priority 2015, dated 2017).

Columns and labels:
[1] = Stability test (impurity contents by HPLC after storage of the solid); assay type: physicochemical; settings: p-toluenesulfonate; for Increase of the impurity contents: illuminating the samples for 10 days
[2] = as above; assay type: physicochemical; settings: p-toluenesulfonate
Protocol: A sample of crystalline form C of compound (I) (100˜200 mg) was placed on a watching glass in the form of a thin layer (thickness ≦5 mm). The samples were exposed to the following conditions: high temperature (60±2° C.) for 10 days; high humidity (25±2° C., 90%±5% relative humidity) for 10 days; illumination condition (visible light 4500 lx±500 lx with ultraviolet light not lower than 0.7 W·h/m^2, 25±2° C., 60%±5% relative humidity) for 10 days; and room temperature (30±2° C., 65%±5% relative humidity) for 10 days, respectively. The impurity contents in the samples were determined at different time points (0, 5 and 10 days) by high performance liquid chromatography (HPLC), and the absorption peaks were normalized relative to the highest peak (corresponds to compound I) which is set to 100%.

[3] = Hygroscopicity test; assay type: physicochemical; settings: p-toluenesulfonate; for Hygroscopicity (in words): conclusion from Table 4; for Hygroscopic capacity %: 25±1° C.
Protocol: A glass weighing bottle equipped with a stopper was tarred and the weight was recorded as m1. Compound (I) in crystalline form C or amorphous form (about 1.0 g) was placed in the tared weighing bottle and capped with the stopper. The total weight was then recorded as m2. […] The weighing bottle capped with its stopper was weighed on day 5 and day 10 and the weight was recorded as m3.

[4] = Pharmacokinetics test in beagle dogs; assay type: in vivo
Protocol: The pharmacokinetic properties of amorphous Compound (I) or the crystalline form C of Compound (I) disclosed herein are assessed in beagle dogs. The LC/MS/MS system used in the analysis consists of an Agilent 1200 Series vacuum degasser, binary pump, well-plate autosampler, thermostatted column compartment, the Agilent G6430 Triple Quadrupole Mass Spectrometer with an electrosprayionization (ESI) source. Quantitative analysis was carried out using MRM mode. The parameters for MRM transitions are in the Table A.
An Agilent XDB-C18, 2.1×30 mm, 3.5 μM column was used for the analysis. 5 μL of the samples were injected. Analysis condition: The mobile phase was 0.1% formic acid in water (A) and 0.1% formic acid in methanol (B). The flow rate was 0.4 mL/min. And the gradient of Mobile phase was in the Table B.
Alternatively, an Agilent 6330 series LC/MS/MS spectrometer equipped with G1312A binary pumps, a G1367A autosampler and a G1314C UV detector were used in the analysis. An ESI source was used on the LC/MS/MS spectrometer. The analysis was done in positive ion mode as appropriate and the MRM transition for each analyte was optimized using standard solution. A Capcell MP-C18 100×4.6 mm I.D., […] column (Phenomenex, Torrance, Calif., USA) was used during the analysis. The mobile phase was 5 mM ammonia acetate, 0.1% MeOH in water (A): 5 mM ammonia acetate, 0.1% MeOH in acetonitrile (B) (70/30, v/v). The flow rate was 0.6 mL/min. Column was maintained at ambient temperature. 20 μL of the samples were injected.
The capsule of the crystalline form C or the amorphous of Compound (I) mixed with adjuvants respectively was administered by gavage to beagle dogs in a dose of 7 or 10 mg/kg. The blood samples (0.3 mL) were drawn at 0.25, 0.5, 1.0, 2.0, 3.0, 4.0, 6.0, 8.0, 12 and 24 hour time points or 0.083, 0.25, 0.5, 1.0, 2.0, 4.0, 6.0, 8.0 and 24 hour time points and centrifuged at 3,000 or 4000 rpm for 2 to 10 min. The plasma solutions were collected, and analyzed by LC/MS/MS as described above. The pharmacokinetic parameters were calculated according to non-compartment model using WinNonlin procedure.

[5] = high humidity (25±2° C., 90%±5% relative humidity), 0 day
[6] = high humidity (25±2° C., 90%±5% relative humidity), 5 days
[7] = high humidity (25±2° C., 90%±5% relative humidity), 10 days
[8] = high temperature (60±2° C.), 10 days
[9] = illuminating condition (visible light 4500 lx±500 lx with UV, 25±2° C., 60%±5% RH), 10 days
[10] = room temperature (30±2° C., 65%±5% relative humidity), 0 day
[11] = high temperature (60±2° C.), 0 day
[12] = high temperature (60±2° C.), 5 days
[13] = illuminating condition (visible light 4500 lx±500 lx with UV, 25±2° C., 60%±5% RH), 0 day
[14] = illuminating condition (visible light 4500 lx±500 lx with UV, 25±2° C., 60%±5% RH), 5 days
[15] = room temperature (30±2° C., 65%±5% relative humidity), 5 days
[16] = room temperature (30±2° C., 65%±5% relative humidity), 10 days
[17] = dog, plasma, po, capsule by gavage, dose 9.9 mg/kg (Form C), 9.7 mg/kg (Amorphous)
[18] = listed as amorphous Compound (I)

| The impurity contents [1, 5] | The impurity contents [1, 6] | The impurity contents [1, 7] | The impurity contents [1, 8] | The impurity contents [1, 9] | The impurity contents [1, 10] | The impurity contents [2, 11] | The impurity contents [2, 12] | The impurity contents [2, 13] | The impurity contents [2, 14] | The impurity contents [2, 15] | The impurity contents [2, 16] | Hygroscopic capacity % ([3]; standing time 5 d) | Hygroscopic capacity % ([3]; standing time 10 d) | SMILES | further results |
| --- | --- | --- | --- | --- | --- | --- | --- | --- | --- | --- | --- | --- | --- | --- | --- |
| 2.00% | 1.94% | 1.92% | 1.89% | 2.14% | 2.00% | 2.00% | 1.97% | 2.00% | 1.97% | 1.90% | 1.91% | 0.22% | 0.43% | Cc1c(C(=O)Nc2ccc(Oc3ccnc4cc(OCC(C)(C)O)ccc34)c(F)c2)c(=O)n(-c2ccccc2)n1C.Cc1ccc(S(=O)(=O)O)cc1 [Form C, N-(3-fluoro-4-((7-(2-hydroxy-2-methylpropoxy)quinolin-4-yl)oxy)phenyl)-1,5-dimethyl-3-oxo-2-phenyl-2,3-dihydro-1H-pyrazole-4-carboxamide p-toluenesulfonate] | Increase of the impurity contents ([1]; listed as crystalline form C of Compound (I)): 0.14%; Hygroscopicity (in words) ([3]; listed as crystalline form C of compound (I)): not hygroscopic; Exposure and bioavailability in vivo (in words) ([4]; Cmax, AUC0-24h and AUC0-∞ compared with amorphous Compound (I)): good exposure and bioavailability; AUC(0-inf) [4, 17]: 90100 ng·h/mL; Cmax [4, 17]: 4760 ng/mL; Tmax [4, 17]: 4 h; half-life [4, 17]: 14.6 h; AUC(0-t) ([4]; dog, plasma, po, capsule by gavage, dose 9.9 mg/kg (Form C), 9.7 mg/kg (Amorphous), read-out: AUC0-24 h): 59700 ng·h/mL |
| 0.14% | 0.11% | 0.07% | 0.10% | 0.56% | 0.14% | 0.14% | 0.13% | 0.14% | 0.36% | 0.07% | 0.07% | 7.74% | 8.48% | Cc1c(C(=O)Nc2ccc(Oc3ccnc4cc(OCC(C)(C)O)ccc34)c(F)c2)c(=O)n(-c2ccccc2)n1C.Cc1ccc(S(=O)(=O)O)cc1 [Amorphous, N-(3-fluoro-4-((7-(2-hydroxy-2-methylpropoxy)quinolin-4-yl)oxy)phenyl)-1,5-dimethyl-3-oxo-2-phenyl-2,3-dihydro-1H-pyrazole-4-carboxamide p-toluenesulfonate] | Increase of the impurity contents [1, 18]: 0.42%; Hygroscopicity (in words) [3, 18]: hygroscopic |
